These results are taken from patent publication US9878986B2, “Compounds for selective histone deacetylase inhibitors, and pharmaceutical composition comprising the same” (CHONG KUN DANG PHARMACEUTICAL CORP., priority 2013, dated 2018).

The target in one assay is T1, HDAC 6 (Homo sapiens, UniProt Q9UBN7).
T1 sequence (Q9UBN7 1-1215): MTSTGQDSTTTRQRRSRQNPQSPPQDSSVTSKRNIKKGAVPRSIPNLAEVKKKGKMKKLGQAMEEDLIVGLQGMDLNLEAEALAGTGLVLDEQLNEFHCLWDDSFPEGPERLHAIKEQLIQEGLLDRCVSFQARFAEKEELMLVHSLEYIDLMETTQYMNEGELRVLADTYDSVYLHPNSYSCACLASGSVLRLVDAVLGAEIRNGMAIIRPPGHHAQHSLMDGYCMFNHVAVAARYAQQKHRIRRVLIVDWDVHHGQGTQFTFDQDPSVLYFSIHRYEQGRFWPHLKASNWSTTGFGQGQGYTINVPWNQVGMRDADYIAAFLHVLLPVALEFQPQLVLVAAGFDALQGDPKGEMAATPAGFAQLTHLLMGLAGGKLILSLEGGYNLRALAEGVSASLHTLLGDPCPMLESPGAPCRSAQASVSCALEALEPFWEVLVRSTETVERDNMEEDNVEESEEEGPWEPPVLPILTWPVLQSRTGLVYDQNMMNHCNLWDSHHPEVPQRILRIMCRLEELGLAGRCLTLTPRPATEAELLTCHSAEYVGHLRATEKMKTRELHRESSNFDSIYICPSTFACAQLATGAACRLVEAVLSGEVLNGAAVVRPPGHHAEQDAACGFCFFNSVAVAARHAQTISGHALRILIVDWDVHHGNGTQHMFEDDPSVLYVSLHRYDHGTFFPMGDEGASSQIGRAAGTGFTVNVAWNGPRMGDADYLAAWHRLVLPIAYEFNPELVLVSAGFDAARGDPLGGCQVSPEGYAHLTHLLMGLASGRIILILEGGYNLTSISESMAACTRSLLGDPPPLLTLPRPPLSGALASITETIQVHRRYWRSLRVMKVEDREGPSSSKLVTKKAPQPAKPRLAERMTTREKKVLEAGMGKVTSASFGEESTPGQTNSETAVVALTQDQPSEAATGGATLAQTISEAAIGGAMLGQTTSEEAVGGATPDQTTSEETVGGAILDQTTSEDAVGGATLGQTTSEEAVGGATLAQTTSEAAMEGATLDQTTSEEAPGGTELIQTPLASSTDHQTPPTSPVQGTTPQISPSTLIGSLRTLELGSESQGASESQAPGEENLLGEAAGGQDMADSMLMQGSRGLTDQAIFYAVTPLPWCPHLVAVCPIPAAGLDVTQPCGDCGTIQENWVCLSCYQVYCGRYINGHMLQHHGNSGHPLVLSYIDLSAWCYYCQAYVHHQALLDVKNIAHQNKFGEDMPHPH
The assay is described as follows: Test of HDAC activities, HDAC6 (fluorimetric). The assay is classed as biochemical. Further details: purchased Calbiochem 382180. The conditions noted are these: samples at 0.1, 1, 10, 100, 1000 nM; 37° C. 60 minutes; fluorescence Ex 390, Em 460; read-out: HDAC inhibitory activities, HDAC6. The method, then: (§1) The HDAC inhibitory activities of test materials were measured using the HDAC1 Fluorimetric Drug Discovery Assay Kit (Enzolifesciences: BML-AK511) and HDAC6 human recombinant (Calbiochem: 382180). In the HDAC1 assay, the samples were treated with concentrations of 100, 1000, and 10000 nM, and in the HDAC6 assay, the samples were treated with concentrations of 0.1, 1, 10, 100, and 1000 nM. After the treatment of the samples, the samples were reacted at 37° C. for 60 minutes, treated with a developer, and then reacted at 37° C. for 30 minutes. Then, the fluorescence intensity (Ex 390, Em 460) was measured using the FlexStation 3 (Molecular device).

In another assay the target is HDAC1 (Homo sapiens, UniProt Q13547). The assay is described as follows: Test of HDAC activities, HDAC1 Fluorimetric Drug Discovery Assay Kit. The format is biochemical. Further details: purchased Enzolifesciences BML-AK511. As to conditions: samples at 100, 1000, 10000 nM; 37° C. 60 minutes; fluorescence Ex 390, Em 460; read-out: HDAC inhibitory activities, HDAC1. The method, then:
as §1

The structures appear in SMILES notation.

HDAC1, sequence (Q13547 whole entry): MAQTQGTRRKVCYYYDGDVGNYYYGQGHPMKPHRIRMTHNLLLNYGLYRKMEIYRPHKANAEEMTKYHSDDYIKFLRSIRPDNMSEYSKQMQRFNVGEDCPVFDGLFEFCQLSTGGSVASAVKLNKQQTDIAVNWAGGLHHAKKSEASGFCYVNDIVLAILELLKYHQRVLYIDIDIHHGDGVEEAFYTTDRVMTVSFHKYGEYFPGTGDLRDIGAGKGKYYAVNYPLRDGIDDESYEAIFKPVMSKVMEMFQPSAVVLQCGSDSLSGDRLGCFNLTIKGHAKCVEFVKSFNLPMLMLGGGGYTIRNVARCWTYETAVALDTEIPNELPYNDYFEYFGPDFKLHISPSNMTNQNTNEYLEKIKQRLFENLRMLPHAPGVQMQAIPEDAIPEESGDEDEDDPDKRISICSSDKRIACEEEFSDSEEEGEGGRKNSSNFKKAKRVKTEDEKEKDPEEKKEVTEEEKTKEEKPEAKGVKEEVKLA

Consider `O=C(NO)c1ccc(CN(C(=O)N2CCOCC2)c2ccc(Br)cc2)cc1` [Compound 372, N-(4-bromophenyl)-N-(4-(hydroxycarbamoyl)benzyl)morpholine-4-carboxamide], for which the IC50 at HDAC 6 stood at 1 nM; at HDAC1, 212 nM.
The corresponding values for `O=C(NO)c1ccc(CN(C(=O)N2CCOCC2)c2ccc(C(F)(F)F)cc2)cc1` [Compound 385, N-(4-(hydroxycarbamoyl)benzyl)-N-(4-(trifluoromethyl)phenyl)morpholine-4-carboxamide] are 5 nM and 976 nM.
The corresponding values for `CC1CN(C(=O)N(Cc2ccc(C(=O)NO)cc2)c2cccc(C(F)(F)F)c2)CC(C)O1` (stereo not shown) [Compound 386, N-(4-(hydroxycarbamoyl)benzyl)-2,6-dimethyl-N-(3-(trifluoromethyl)phenyl)morpholine-4-carboxamide] are 6 nM and 4040 nM.
In the same order, the values of `O=C(NO)c1ccc(CN(C(=O)N2CCCCC2)c2ccc(Cl)c(C(F)(F)F)c2)cc1` [Compound 389, N-(4-chloro-3-(trifluoromethyl)phenyl)-N-(4-(hydroxycarbamoyl)benzyl)piperidine-1-carboxamide] are 37 nM and 7830 nM.
On to `CC1CCN(C(=O)N(Cc2ccc(C(=O)NO)cc2)c2ccc(Cl)c(C(F)(F)F)c2)CC1` [Compound 390, N-(4-chloro-3-(trifluoromethyl)phenyl)-N-(4-(hydroxycarbamoyl)benzyl)-4-methylpiperidine-1-carboxamide], for which the IC50 at HDAC 6 was 20 nM; on HDAC1, 6220 nM.
The corresponding values for `O=C(NO)c1ccc(CN(C(=O)N2CCOCC2)c2ccc(Cl)c(C(F)(F)F)c2)cc1` [Compound 391, N-(4-chloro-3-(trifluoromethyl)phenyl)-N-(4-(hydroxycarbamoyl)benzyl)morpholine-4-carboxamide] are 3 nM and 2120 nM.
With `CC1CN(C(=O)N(Cc2ccc(C(=O)NO)cc2)c2ccc(Cl)c(C(F)(F)F)c2)CC(C)O1` (stereo not shown) [Compound 392, N-(4-chloro-3-(trifluoromethyl)phenyl)-N-(4-(hydroxycarbamoyl)benzyl)-2,6-dimethylmorpholine-4-carboxamide], the IC50 was determined as 5 nM at HDAC 6 and 2870 nM on HDAC1.
The corresponding values for `CN1CCN(C(=O)N(Cc2ccc(C(=O)NO)cc2)c2ccc(Cl)c(C(F)(F)F)c2)CC1` [Compound 393, N-(4-chloro-3-(trifluoromethyl)phenyl)-N-(4-(hydroxycarbamoyl)benzyl)-4-methylpiperazine-1-carboxamide] are 5 nM and 1110 nM.
In the same order, the values of `CCN1CCN(C(=O)N(Cc2ccc(C(=O)NO)cc2)c2ccc(Cl)c(C(F)(F)F)c2)CC1` [Compound 394, N-(4-chloro-3-(trifluoromethyl)phenyl)-4-ethyl-N-(4-(hydroxycarbamoyl)benzyl)piperazine-1-carboxamide] are 11 nM and 2590 nM.
The corresponding values for `O=C(NO)c1ccc(CN(C(=O)N2CCOCC2)c2cccc(-c3cc(F)cc(F)c3)c2)cc1` [Compound 395, N-(3′,5′-difluorobiphenyl-3-yl)-N-(4-(hydroxycarbamoyl)benzyl)morpholine-4-carboxamide] are 5 nM and 489 nM.
Regarding `CN(C)c1ccc(-c2cccc(N(Cc3ccc(C(=O)NO)cc3)C(=O)N3CCOCC3)c2)cn1` [Compound 396, N-(3-(6-(dimethylamino)pyridin-3-yl)phenyl)-N-(4-(hydroxycarbamoyl)benzyl)morpholine-4-carboxamide], the results for the IC50 on HDAC 6 and on HDAC1 were 5 nM and 257 nM, respectively.
The corresponding values for `O=C(NO)c1ccc(CN(C(=O)N2CCOCC2)c2cccc(-c3cncnc3)c2)cc1` [Compound 397, N-(4-(hydroxycarbamoyl)benzyl)-N-(3-(pyrimidin-5-yl)phenyl)morpholine-4-carboxamide] are 14 nM and 1000 nM.
In the same order, the values of `O=C(NO)c1ccc(CN(C(=O)N2CCOCC2)c2cccc(-c3cc(C(F)(F)F)cc(C(F)(F)F)c3)c2)cc1` [Compound 398, N-(3′,5′-bis(trifluoromethyl)biphenyl-3-yl)-N-(4-(hydroxycarbamoyl)benzyl)morpholine-4-carboxamide] are 32 nM and 4450 nM.
The corresponding values for `O=C(NO)c1ccc(CN(C(=O)N2CCOCC2)c2cccc(-c3ccc4c(c3)OCCO4)c2)cc1` [Compound 399, N-(3-(2,3-dihydrobenzo[b][1,4]dioxin-6-yl)phenyl)-N-(4-(hydroxycarbamoyl)benzyl)morpholine-4-carboxamide] are 7 nM and 302 nM.
With `COc1cc(-c2cccc(N(Cc3ccc(C(=O)NO)cc3)C(=O)N3CCOCC3)c2)cc(OC)c1OC` [Compound 400, N-(4-(hydroxycarbamoyl)benzyl)-N-(3′,4′,5′-trimethoxybiphenyl-3-yl)morpholine-4-carboxamide], the IC50 worked out at 8 nM at HDAC 6 and 770 nM at HDAC1.
Regarding `Cc1cccc(C)c1-c1cccc(N(Cc2ccc(C(=O)NO)cc2)C(=O)N2CCOCC2)c1` [Compound 401, N-(2′,6′-dimethylbiphenyl-3-yl)-N-(4-(hydroxycarbamoyl)benzyl)morpholine-4-carboxamide], the IC50 at HDAC 6 amounted to 8 nM; on HDAC1, 1790 nM.
The corresponding values for `O=C(NO)c1ccc(CN(C(=O)N2CCOCC2)c2cccc(-c3ccoc3)c2)cc1` [Compound 402, N-(3-(furan-3-yl)phenyl)-N-(4-(hydroxycarbamoyl)benzyl)morpholine-4-carboxamide] are 3 nM and 170 nM.
As for `O=C(NO)c1ccc(CN(C(=O)N2CCOCC2)c2cccc(C3=CCOCC3)c2)cc1` [Compound 403, N-(3-(3,6-dihydro-2H-pyran-4-yl)phenyl)-N-(4-(hydroxycarbamoyl)benzyl)morpholine-4-carboxamide], the IC50 on HDAC 6 is 1 nM; at HDAC1, 453 nM.
For `CN1CC=C(c2cccc(N(Cc3ccc(C(=O)NO)cc3)C(=O)N3CCOCC3)c2)CC1` [Compound 404, N-(4-(hydroxycarbamoyl)benzyl)-N-(3-(1-methyl-1,2,3,6-tetrahydropyridin-4-yl)phenyl) morpholine-4-carboxamide], the figures for the IC50 on HDAC 6 and on HDAC1 were 16 nM and 3500 nM, respectively.
Consider `CC(C)(C)OC(=O)N1CC=C(c2cccc(N(Cc3ccc(C(=O)NO)cc3)C(=O)N3CCOCC3)c2)CC1` [Compound 405, tert-butyl 4-(3-(N-(4-(hydroxycarbamoyl)benzyl)morpholine-4-carboxamido)phenyl)-5,6-dihydropyridine-1(2H)-carboxylate], for which the results for the IC50 on HDAC 6 and on HDAC1 were 3 nM and 1450 nM, respectively.
As to `O=C(NO)c1ccc(CN(C(=O)N2CCOCC2)c2ccc(F)cc2F)cc1` [Compound 413, N-(2,4-difluorophenyl)-N-(4-(hydroxycarbamoyl)benzyl)morpholine-4-carboxamide], the IC50 was found to be 0.4 nM at HDAC 6 and 860 nM at HDAC1.
The corresponding values for `O=C(NO)c1ccc(CN(C(=O)N2CCCCC2)c2ccc(F)cc2F)cc1` [Compound 414, N-(2,4-difluorophenyl)-N-(4-(hydroxycarbamoyl)benzyl)piperidine-1-carboxamide] are 1 nM and 1170 nM.
The corresponding values for `CC1CN(C(=O)N(Cc2ccc(C(=O)NO)cc2)c2ccc(F)cc2F)CC(C)O1` (stereo not shown) [Compound 415, N-(2,4-difluorophenyl)-N-(4-(hydroxycarbamoyl)benzyl)-2,6-dimethylmorpholine-4-carboxamide] are 5 nM and 1220 nM.
